In US7732449B2, “Inhibitors of cathepsin S” (IRM LLC, priority 2003, dated 2010):
Like-named read-outs stand apart in the source and are kept apart here.

Key:
Type in all cases: biochemical
Cathepsin B = Cathepsin B (Homo sapiens, UniProt P07858); assay: Cathepsin B inhibition, fluorogenic peptide substrate kinetic assay (selectivity); details: ratio of cathepsin B inhibition constant to cathepsin S inhibition constant;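 note: value is the cathepsin B inhibition constant divided by the cathepsin S one, each from kinetic fluorescence readings (ex 380 nm, em 450 nm) of a 10 µM coumarin peptide substrate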
Cathepsin S = Cathepsin S (Homo sapiens, UniProt P25774); assay: Cathepsin S inhibition, fluorogenic peptide substrate kinetic assay;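 note: cleavage rate of a coumarin-labelled peptide substrate (50 µM) read as fluorescence increase at Ex 380 nm and Em 450 nm, relative to inhibitor-free control reactions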
Cathepsin L = Cathepsin L (Homo sapiens, UniProt P07711); assay: Cathepsin L inhibition, fluorogenic peptide substrate kinetic assay (selectivity); details: ratio of cathepsin L inhibition constant to cathepsin S inhibition constant
Cathepsin K = target: T1, Cathepsin K (Homo sapiens, UniProt P43235); assay: Cathepsin K inhibition, fluorogenic peptide substrate kinetic assay (selectivity); details: ratio of cathepsin K inhibition constant to cathepsin S inhibition constant
T1 sequence (P43235 115-329): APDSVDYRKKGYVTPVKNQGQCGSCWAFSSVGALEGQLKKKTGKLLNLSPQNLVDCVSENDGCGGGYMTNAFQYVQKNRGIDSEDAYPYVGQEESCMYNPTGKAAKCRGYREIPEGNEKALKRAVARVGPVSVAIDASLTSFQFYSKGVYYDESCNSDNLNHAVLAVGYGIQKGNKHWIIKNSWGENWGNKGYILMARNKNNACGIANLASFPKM

[1] = Cathepsin S inhibition constant, pH5.5, 20 minutes preincubation at room temperature, read-out: Ki Cat. S

Chain of Cathepsin S (P25774 115-331, species assumed): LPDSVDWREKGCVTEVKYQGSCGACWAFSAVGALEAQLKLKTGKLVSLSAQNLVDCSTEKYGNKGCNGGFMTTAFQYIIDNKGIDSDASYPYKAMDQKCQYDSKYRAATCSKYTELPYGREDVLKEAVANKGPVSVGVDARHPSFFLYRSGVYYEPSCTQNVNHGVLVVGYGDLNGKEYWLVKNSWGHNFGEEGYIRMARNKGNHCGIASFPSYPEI
Chain of Cathepsin L (P07711 114-333, species assumed): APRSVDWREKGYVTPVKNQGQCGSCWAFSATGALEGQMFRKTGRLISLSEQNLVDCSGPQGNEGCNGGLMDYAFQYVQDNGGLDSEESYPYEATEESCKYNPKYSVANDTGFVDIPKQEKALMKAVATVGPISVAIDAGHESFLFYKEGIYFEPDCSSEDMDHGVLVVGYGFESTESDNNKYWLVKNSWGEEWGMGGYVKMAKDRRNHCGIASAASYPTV

Row | SMILES | Selectivity for Cat. S over Cat. B (Cathepsin B) | Ki (Cathepsin S; [1]) [nM] | Selectivity for Cat. S over Cat. L (Cathepsin L) | Selectivity for Cat. S over Cat. K (Cathepsin K) | Ki (Cathepsin S) [nM]
1 | O=C(NCCN1CCc2cc(F)ccc21)[C@H](CC1CCCCC1)NC(=O)N1CCOCC1 [Example 2, Morpholine-4-carboxylic acid {2-cyclohexyl-1-(S)-[2-(5-fluoro-2,3-dihydro-indol-1-yl)-ethylcarbamoyl]-ethyl}-amide] | +++ (+++, >1000) | < 100 | + (+, >10) | ++ (++, >100) | 
2 | O=C(NCCNc1ccc(F)cc1)[C@H](CC1CCCCC1)NC(=O)N1CCOCC1 [Example 3, Morpholine-4-carboxylic acid {2-cyclohexyl-1-(S)-[2-(4-fluoro-phenylamino)-ethylcarbamoyl]-ethyl}-amide] | ++ (++, >100) | < 100 | + (+, >10) | ++ (++, >100) | 
3 | COc1ccc(NCCNC(=O)[C@H](CC2CCCCC2)NC(=O)N2CCOCC2)cc1 [Example 4, Morpholine-4-carboxylic acid {2-cyclohexyl-1-(S)-[2-(4-methoxy-phenylamino)-ethylcarbamoyl]-ethyl}-amide] | +++ (+++, >1000) | < 100 | + (+, >10) | ++ (++, >100) | 
4 | O=C(NCCNc1ccc(F)cc1)O[C@@H](CC1CCCCC1)C(=O)N1CCOCC1 [Example 5, [2-(4-Fluoro-phenylamino)-ethyl]-carbamic acid 1-(S)-cyclohexylmethyl-2-morpholin-4-yl-2-oxo-ethyl ester] | + (+, >10) | 1000 to 10000 | + (+, >10) | + (+, >10) | 
5 | O=C(NCCNc1ccc(F)cc1)[C@@H](CC(=O)N1CCOCC1)CC1CCCCC1 [Example 6, 2-(R)-Cyclohexylmethyl-N-[2-(4-fluoro-phenylamino)-ethyl]-4-morpholin-4-yl-4-oxo-butyramide] | + (+, >10) |  | + (+, >10) | + (+, >10) | 1000 to 10000
6 | CC1(C)CN([C@H]2COC[C@@H]2NC(=O)O[C@@H](CC2CCCCC2)C(=O)N2CCOCC2)c2ccc(F)cc21 [Example 7, [4-(R)-(5-Fluoro-3,3-dimethyl-2,3-dihydro-indol-1-yl)-tetrahydro-furan-3-(R)-yl]-carbamic acid 1-(S)-cyclohexylmethyl-2-morpholin-4-yl-2-oxo-ethyl ester] | + (+, >10) | 1000 to 10000 | + (+, >10) | + (+, >10) | 
7 | C[C@@H](CN1CCc2cc(F)ccc21)NC(=O)[C@@H](CC(=O)N1CCOCC1)CC1CCCCC1 [Example 8, 2-(R)-Cyclohexylmethyl-N-[2-(5-fluoro-2,3-dihydro-indol-1-yl)-1-(S)-methyl-ethyl]-4-morpholin-4-yl-4-oxo-butyramide] | +++ (+++, >1000) | < 100 | ++ (++, >100) | ++ (++, >100) | 
8 | O=C(C[C@@H](CC1CCCCC1)C(=O)N1CCOCC1)NCCNc1ccc(F)cc1 [Example 9, 3-(R)-Cyclohexylmethyl-N-[2-(4-fluoro-phenylamino)-ethyl]-4-morpholin-4-yl-4-oxo-butyramide] | + (+, >10) |  | + (+, >10) | + (+, >10) | 1000 to 10000
9 | C[C@@H](CN1CCc2cc(F)ccc21)NC(=O)[C@H](CC1CCCCC1)OC(=O)N1CCOCC1 [Example 12, Morpholine-4-carboxylic acid 2-cyclohexyl-1-(S)-[2-(5-fluoro-2,3-dihydro-indol-1-yl)-1-(S)-methyl-ethylcarbamoyl]-ethyl ester] | ++ (++, >100) | 100 to 1000 | + (+, >10) | + (+, >10) | 
10 | O=C(NCCNc1ccc(OC(F)(F)F)cc1)[C@@H](CC(=O)N1CCOCC1)CC1CCCCC1 [Example 13, 2-(R)-Cyclohexylmethyl-4-morpholin-4-yl-4-oxo-N-[2-(4-trifluoromethoxy-phenylamino)-ethyl]-butyramide] | ++ (++, >100) |  | ++ (++, >100) | ++ (++, >100) | 100 to 1000
11 | C[C@@H](CNc1ccc(OC(F)(F)F)cc1)NC(=O)[C@@H](CC(=O)N1CCOCC1)CC1CCCCC1 [Example 14, 2-(R)-Cyclohexylmethyl-N-[1-(S)-methyl-2-(4-trifluoromethoxy-phenylamino)-ethyl]-4-morpholin-4-yl-4-oxo-butyramide] | +++ (+++, >1000) |  | ++ (++, >100) | ++ (++, >100) | < 100
12 | C[C@@H](CNc1ccc(OC(F)(F)F)cc1)NC(=O)[C@@H](CC(=O)N1CCOCC1)CC1CCCC1 [Example 15, 2-(R)-Cyclopentylmethyl-N-[1-(S)-methyl-2-(4-trifluoromethoxy-phenylamino)-ethyl]-4-morpholin-4-yl-4-oxo-butyramide] | +++ (+++, >1000) |  | ++ (++, >100) | ++ (++, >100) | < 100
13 | C[C@@H](CNc1ccc(OC(F)(F)F)cc1)NC(=O)[C@H](CC1CCCC1)[C@@H](C)C(=O)N1CCOCC1 [Example 16, 2-(R)-Cyclopentylmethyl-3-(R)-methyl-N-[1-(S)-methyl-2-(4-trifluoromethoxy-phenylamino)-ethyl]-4-morpholin-4-yl-4-oxo-butyramide] | ++ (++, >100) | 100 to 1000 | + (+, >10) | + (+, >10) | 
14 | C=CC[C@H](CC(=O)N1CCOCC1)C(=O)N[C@H](CNc1ccc(OC(F)(F)F)cc1)C(C)C [Example 47, 2-(R)-(2-Morpholin-4-yl-2-oxo-ethyl)-pent-4-enoic acid {2-methyl-1-(S)-[(4-trifluoromethoxy-phenylamino)-methyl]-propyl}-amide] | + (+, >10) | 100 to 1000 | + (+, >10) |  | 
15 | CC(C)[C@@H](CNc1ccc(OC(F)(F)F)cc1)NC(=O)[C@H](CC(=O)N1CCOCC1)c1ccc(S(C)(=O)=O)cc1 [Example 71, 2-(R)-(4-methanesulfonyl-phenyl)-N-{2-methyl-1-(S)-[(4-trifluoromethoxy-phenylamino)-methyl]-propyl}-4-morpholin-4-yl-4-oxo-butyramide] | + (+, >10) | 1000 to 10000 | ++ (++, >100) |  | 
16 | C[C@@H](CNc1ccc(OC(F)F)cc1)NC(=O)O[C@@H](CC(C)(C)C)C(=O)N1CCOCC1 [Example 85, [2-(4-Difluoromethoxy-phenylamino)-1-(S)-methyl-ethyl]-carbamic acid 3,3-dimethyl-1-(S)-(morpholine-4-carbonyl)-butyl ester] | + (+, >10) | 1000 to 10000 | + (+, >10) |  | 
